Series [1] concerns Rattus norvegicus. The series can be described thus: Cardioprotective effect in rat ischemia/reperfusion-induced myocardial infarction model assessed as reduction in infarct size at 20 mg/kg, iv administered 10 mins prior to reperfusion. On the set-up: scale not given: the % may be the effect or the level left.
The subject of series [2] is Rattus norvegicus. The series can be described thus: Neuroprotective effect in rat transient MCAO model assessed as reduction in infarct volume at 10 mg/kg/hr, iv administered prior to reperfusion. More on the design: scale not given: the % may be the effect or the level left.
Series [3] is described as follows: Half life in human patient at 200 to 800 mg, iv. The series is classed as ADME, organism-based. The conditions noted are these: in vivo.
The next series is described as follows: in vivo. The note with it: rat, brain/plasma, 10 mg/kg.
Series [4] relates to Rattus norvegicus. The series can be described thus: Cardioprotective effect in rat ischemia/reperfusion-induced myocardial infarction model assessed as reduction in infarct size at 3 mg/kg/hr, iv administered prior to reperfusion measured after 2 hrs. It counts as functional, Myocardium. More on the design: scale not given: the % may be the effect or the level left.
Series [5] concerns Rattus norvegicus. The series can be described thus: Cardioprotective effect in rat ischemia/reperfusion-induced myocardial infarction model assessed as reduction in infarct size at 3 mg/kg/hr, iv administered prior to reperfusion measured after 4 hrs. On the set-up: scale not given: the % may be the effect or the level left. It counts as functional, Myocardium.
Series [6] relates to Rattus norvegicus. The series can be described thus: Cardioprotective effect in rat ischemia/reperfusion-induced myocardial infarction model assessed as reduction in infarct size at 3 mg/kg/hr, iv administered prior to reperfusion. More on the design: scale not given: the % may be the effect or the level left. The series is classed as functional, Myocardium.
The test system of a further series is LoVo. Description: Potentiation of TMZ-induced antiproliferation against human LoVo cells at 0.4 uM. The series is classed as functional.
The subject of another series is Liver microsomes. Description: Intrinsic clearance in human liver microsome. It counts as ADME. In general terms: Liver microsomes are vesicles of endoplasmic reticulum, rich in cytochrome P450 enzymes.
The target in series [7] is Poly [ADP-ribose] polymerase 2 (Homo sapiens, UniProt Q9UGN5). Description: Inhibition of PARP2.
Sequence of Poly [ADP-ribose] polymerase 2 (Q9UGN5 whole entry): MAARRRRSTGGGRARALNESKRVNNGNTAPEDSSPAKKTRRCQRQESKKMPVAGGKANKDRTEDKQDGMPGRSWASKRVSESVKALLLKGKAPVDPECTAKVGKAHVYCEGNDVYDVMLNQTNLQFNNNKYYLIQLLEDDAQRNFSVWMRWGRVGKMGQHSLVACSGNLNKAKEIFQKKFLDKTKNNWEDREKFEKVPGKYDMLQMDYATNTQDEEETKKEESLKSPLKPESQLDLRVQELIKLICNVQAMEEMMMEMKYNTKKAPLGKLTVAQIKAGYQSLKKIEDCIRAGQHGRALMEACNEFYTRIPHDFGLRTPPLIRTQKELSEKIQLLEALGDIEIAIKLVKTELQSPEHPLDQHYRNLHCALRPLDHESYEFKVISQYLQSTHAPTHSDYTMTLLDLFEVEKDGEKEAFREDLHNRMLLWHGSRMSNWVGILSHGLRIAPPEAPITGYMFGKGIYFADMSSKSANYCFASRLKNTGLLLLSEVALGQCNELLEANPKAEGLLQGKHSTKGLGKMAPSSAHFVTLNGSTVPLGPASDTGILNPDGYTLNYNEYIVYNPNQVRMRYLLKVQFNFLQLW
In series [8] the target is T1, Poly [ADP-ribose] polymerase 1 (Homo sapiens, UniProt P09874).
T1 sequence (P09874 whole entry): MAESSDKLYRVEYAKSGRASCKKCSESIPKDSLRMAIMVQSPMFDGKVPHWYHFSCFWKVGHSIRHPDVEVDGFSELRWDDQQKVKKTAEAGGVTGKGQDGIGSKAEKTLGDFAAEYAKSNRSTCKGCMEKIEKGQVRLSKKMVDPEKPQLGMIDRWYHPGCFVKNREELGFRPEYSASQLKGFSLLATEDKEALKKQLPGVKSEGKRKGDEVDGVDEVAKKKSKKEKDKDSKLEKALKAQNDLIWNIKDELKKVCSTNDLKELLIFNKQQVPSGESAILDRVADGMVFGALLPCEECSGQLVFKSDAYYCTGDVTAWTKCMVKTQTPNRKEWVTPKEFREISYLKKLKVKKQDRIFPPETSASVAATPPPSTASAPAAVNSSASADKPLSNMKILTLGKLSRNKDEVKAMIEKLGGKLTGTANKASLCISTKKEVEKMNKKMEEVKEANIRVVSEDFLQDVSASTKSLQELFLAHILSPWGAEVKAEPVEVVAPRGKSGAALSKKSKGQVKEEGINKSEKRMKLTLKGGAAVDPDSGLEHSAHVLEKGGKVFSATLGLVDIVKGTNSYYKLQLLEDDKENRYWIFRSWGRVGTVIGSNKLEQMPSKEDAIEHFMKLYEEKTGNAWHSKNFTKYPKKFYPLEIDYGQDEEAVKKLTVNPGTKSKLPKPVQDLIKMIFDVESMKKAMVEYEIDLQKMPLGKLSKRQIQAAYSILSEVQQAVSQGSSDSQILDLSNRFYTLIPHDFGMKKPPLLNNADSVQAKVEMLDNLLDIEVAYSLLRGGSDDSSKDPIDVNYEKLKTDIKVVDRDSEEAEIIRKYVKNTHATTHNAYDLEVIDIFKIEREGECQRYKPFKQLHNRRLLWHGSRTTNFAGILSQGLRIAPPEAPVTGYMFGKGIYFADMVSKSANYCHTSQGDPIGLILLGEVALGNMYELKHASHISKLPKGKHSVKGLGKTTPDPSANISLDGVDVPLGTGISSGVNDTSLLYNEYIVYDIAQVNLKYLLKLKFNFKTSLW
Series [9] can be described thus: Selectivity for […].
Series [10] in a line: Biodistribution in human patient urine. It counts as ADME, organism-based. The note with it: in vivo.
The nature of series [11]: Half life in iv dosed human patient. The series is classed as ADME, organism-based. The conditions noted are these: in vivo.
Another series concerns Homo sapiens. Description: Toxicity in iv infused human patients assessed as maximum tolerated dose. It counts as organism-based. The conditions noted are these: in vivo.
Series [12] has as its target T1, Poly [ADP-ribose] polymerase 1. Description: Inhibition of PARP1 at 9.2 uM. On the set-up: scale not given: the % may be the effect or the level left.
The next series relates to L1210. Description: Cytotoxicity against mouse L1210 cells. The series is classed as functional.
For series [13], the system named is Rattus norvegicus. The series can be described thus: Neuroprotective effect in rat transient MCAO model assessed as reduction in infarct volume at 40 mg/kg, iv administered prior to reperfusion. More on the design: scale not given: the % may be the effect or the level left.
Series [14] relates to Rattus norvegicus. Description: Cardioprotective effect in rat cardiac ischemia model assessed as reduction in infarct size at 80 mg/kg, iv administered prior to reperfusion. The series is classed as functional, Heart. On the set-up: scale not given: the % may be the effect or the level left.
Series [15] in a line: Half life in human patient at 2.8 mg/kg, iv. The series is classed as ADME, organism-based. More on the design: dose 2.8 mg/kg, route intravenous. The note with it: in vivo.
Series [16] in a line: Ratio of drug level in brain to plasma in rat. It counts as ADME.

The record followed here is ChEMBL document CHEMBL1177697, “Evolution of poly(ADP-ribose) polymerase-1 (PARP-1) inhibitors. From concept to clinic” (J Med Chem, 2010).

Description for in vivo: Ratio of drug level in brain to plasma in rat at 10 mg/kg/hr after 6 hrs

As to `Nc1ncnc2c1ncn2[C@@H]1O[C@H](C(=O)N2CCN(CC(=O)Nc3cccc4c3CNC4=O)CC2)[C@@H](O)[C@H]1O`, the results for the Activity with Rattus norvegicus [1] and in the series on Rattus norvegicus [2] were 35% and 57%, respectively.
Take `OC[C@H]1O[C@@H](n2cnc3c(O)ncnc32)[C@H](O)[C@@H]1O` [INOSINE]: in [3], the half-life – broadly, the time needed for the level to fall by half in the phase considered – was 7.5 h.
Turning to `CN(C)Cc1ccc(-c2c[nH]c(=O)c3cccc(O)c23)cc1`, the Kp (usually tissue or fluid exposure divided by exposure in the circulation) at 6 h in the series “in vivo” amounted to 0.8. Moreover, the Activity in the series with Rattus norvegicus [4] amounted to 50%; with Rattus norvegicus [5], 47%; in the series on Rattus norvegicus [6], 57%.
Take `O=C1NCCc2c(-c3ccc(CN4CCCC4)cc3)[nH]c3cccc1c23`: the PF50 with LoVo was found to be 7.8.
In the series on Liver microsomes, `O=C1CCC(=O)N1c1cc(Cc2n[nH]c(=O)c3ccccc23)ccc1F` yielded a CL of less than 1 mL/min/g.
In the case of `O=c1[nH]c(CCCN2CC=C(c3ccc(F)cc3)CC2)nc2c(Cl)cccc12`, it took 500 nM to reach half-maximal inhibition in series [7] (IC50).
Take `CN(C)Cc1ccc(-c2cc3cccc4c3n2CCNC4=O)cc1`: the PF50 in the series with LoVo came to 3.8.
On to `O=c1[nH]cnc2ccccc12` [QUINAZOLINONE], for which the IC50 (usually the midpoint of a concentration-inhibition curve) in [8] worked out at 15800 nM.
Take `CN(C)Cc1ccc(-c2nc3cccc4c3n2CCNC4=O)cc1`: the PF50 in the series on LoVo came out at 5.5.
`NC(=O)c1cccc2[nH]cnc12` yielded an IC50 in [8] of 240 nM.
With `N#Cc1ccc(-c2cnc3cccc(C(N)=O)c3n2)cc1`, in [9], the Selectivity ratio worked out at 10. Moreover, in series [7], the midpoint of inhibition, the IC50, lay at 8 nM.
In turn, `O=c1[nH]ccc2c(Br)cccc12` came in with an IC50 in series [8] of 270 nM.
In series [10], `CNCc1ccc(-c2[nH]c3cc(F)cc4c3c2CCNC4=O)cc1` [RUCAPARIB] had a Drug uptake of 11%. Further, in series [11], the half-life is 9.5 h. In addition, the MTD with Homo sapiens came out at 200 mg/m2.
With `NC(=O)c1cccc(C2CO2)c1` (centres undefined), in series [12], the Activity amounted to 88%. Also, the IC50 in [8] was found to be 1000 nM.
In turn, `Cc1nc2c(O)cccc2c(=O)[nH]1` yielded an Activity in the series on L1210 of 90%.
For `CN1CCN(c2ccc3nc(O)c4ccccc4c3n2)CC1`, the Activity with Rattus norvegicus [13] amounted to 44%; with Rattus norvegicus [14] it was 25%.
Molecule `CCc1cc2cc(C(CCN3CCCCC3)Cc3ccc4c(c3)OCCO4)ccc2[nH]c1=O` (centres undefined) gave an IC50 in [8] of 9.2 nM.
For `NC(=O)c1ccc(I)c([N+](=O)[O-])c1` [INIPARIB], the half-life in series [15] turned out to be 4 min.
Consider `Cc1nc2cccc(Cl)c2c(=O)[nH]1`, for which the concentration ratio (Kp) in [16] was 0.82.
Molecule `O=c1[nH]cc(-c2ccccc2)c2ccccc12` displayed an IC50 in series [8] of 890 nM.
